Converted amounts (≈) assume the structure as drawn. *1 amine or outer side, *2 acyl side, *3 side chain or, on linkers, in order; H or OH if unused. Where a SMILES comes first, the peptide text is derived from it. Bridges are numbered along the chain shown (N, C = ends). [ ]: non-standard residue; d: D form. The star is where a group is joined. ξ: configuration not given here. ξOrn(4R-OH,5R-OH) = O=C(C(C[C@@H](O)[C@@H](O)N[*:3])N[*:1])[*:2]; hTyr(3S-OH,4S-OH) = N[C@H](C(=O)O)[C@H](O)[C@@H](O)c1ccc(O)cc1; Orn(3R-OH) = NCC[C@@H](O)[C@H](N)C(=O)O; X2 = O=C(C1CN([*:1])C[C@@H]1O)[*:2]; ξPro(4R-OH) = O=C(O)C1C[C@@H](O)CN1; X1 = CCC(C)CC(C)CCCCCCCCC(=O)*
Columns and labels:
1,3-beta-glucan synthase = 1,3-beta-glucan synthase (Candida glabrata, UniProt F5BCZ9); experiment: Inhibition of 1,3-beta-glucan synthase; parameters: species or system Candida glabrata CBS 138
Candida albicans [1] = experiment: Tested for minimum fungicidal concentration (MFC) against Candida albicans (MY 1055); assay type: functional
Mus musculus [2] = organism: Mus musculus; experiment: […] anti-candida activity expressed as ED99.9 in a mouse model of disseminated candidiasis (TOKA); assay type: functional
Mus musculus [3] = organism: Mus musculus; experiment: Percentage of mice with complete eradication of candida in kidneys; assay type: functional, Kidney
[4] = Acute toxicity in mice after intravenous administration; details: mouse, in vivo
Candida albicans [5] = experiment: Tested for in vitro minimum fungicidal concentration (MFC) against C. albicans; 0.03-0.5; assay type: functional
Pichia kudriavzevii [6] = experiment: Tested for in vitro minimum fungicidal concentration (MFC) against C. krusei; 1-2; assay type: functional
Kluyveromyces marxianus [7] = experiment: Tested for in vitro minimum fungicidal concentration (MFC) against C. pseudotropicalis; 0.06-0.5; assay type: functional
Nakaseomyces glabratus [8] = experiment: Tested for in vitro minimum fungicidal concentration (MFC) against C. glabrata; 0.5-1; assay type: functional
Candida parapsilosis [9] = experiment: Tested for in vitro minimum fungicidal concentration (MFC) against C. parapsilosis; 0.25-1; assay type: functional
[10] = tested on: Meyerozyma guilliermondii; experiment: Tested for in vitro minimum fungicidal concentration (MFC) against C. guilliermondii; 0.5-4; assay type: functional
Candida tropicalis [11] = experiment: Tested for in vitro minimum fungicidal concentration (MFC) against C. tropicalis; 0.06-1; assay type: functional
Clavispora lusitaniae [12] = experiment: Tested for in vitro minimum fungicidal concentration (MFC) against C. lusitaniae; 0.06-0.5; assay type: functional
Cryptococcus neoformans [13] = experiment: Tested for in vitro minimum fungicidal concentration (MFC) against C. neoformans; 8-32; assay type: functional
Mus musculus [14] = experiment: In vivo effective intraperitoneal dose to achieve least 50% survival in a mouse model of disseminated aspergillosis; assay type: functional; details: ip
Candida albicans [15] = experiment: Tested for in vitro minimum fungicidal concentration (MFC) against C. albicans; 0.06-0.5; assay type: functional
Pichia kudriavzevii [16] = experiment: Tested for in vitro minimum fungicidal concentration (MFC) against C. krusei; 0.25-0.5; assay type: functional
Candida parapsilosis [17] = experiment: Tested for in vitro minimum fungicidal concentration (MFC) against C. parapsilosis; 0.5-1; assay type: functional
[18] = tested on: Meyerozyma guilliermondii; experiment: Tested for in vitro minimum fungicidal concentration (MFC) against C. guilliermondii; 0.125-0.5; assay type: functional
Candida tropicalis [19] = experiment: Tested for in vitro minimum fungicidal concentration (MFC) against C. tropicalis; 0.25-0.5; assay type: functional
Kluyveromyces marxianus [20] = experiment: Tested for in vitro minimum fungicidal concentration (MFC) against C. pseudotropicalis; 0.125-0.5; assay type: functional
Clavispora lusitaniae [21] = experiment: Tested for in vitro minimum fungicidal concentration (MFC) against C. lusitaniae; 0.5-2; assay type: functional
Nakaseomyces glabratus [22] = experiment: Tested for in vitro minimum fungicidal concentration (MFC) against C. glabrata; 0.125-0.5; assay type: functional
Cryptococcus neoformans [23] = experiment: Tested for in vitro minimum fungicidal concentration (MFC) against C. neoformans; 0.125-0.5; assay type: functional

Sequence of 1,3-beta-glucan synthase (F5BCZ9 whole entry): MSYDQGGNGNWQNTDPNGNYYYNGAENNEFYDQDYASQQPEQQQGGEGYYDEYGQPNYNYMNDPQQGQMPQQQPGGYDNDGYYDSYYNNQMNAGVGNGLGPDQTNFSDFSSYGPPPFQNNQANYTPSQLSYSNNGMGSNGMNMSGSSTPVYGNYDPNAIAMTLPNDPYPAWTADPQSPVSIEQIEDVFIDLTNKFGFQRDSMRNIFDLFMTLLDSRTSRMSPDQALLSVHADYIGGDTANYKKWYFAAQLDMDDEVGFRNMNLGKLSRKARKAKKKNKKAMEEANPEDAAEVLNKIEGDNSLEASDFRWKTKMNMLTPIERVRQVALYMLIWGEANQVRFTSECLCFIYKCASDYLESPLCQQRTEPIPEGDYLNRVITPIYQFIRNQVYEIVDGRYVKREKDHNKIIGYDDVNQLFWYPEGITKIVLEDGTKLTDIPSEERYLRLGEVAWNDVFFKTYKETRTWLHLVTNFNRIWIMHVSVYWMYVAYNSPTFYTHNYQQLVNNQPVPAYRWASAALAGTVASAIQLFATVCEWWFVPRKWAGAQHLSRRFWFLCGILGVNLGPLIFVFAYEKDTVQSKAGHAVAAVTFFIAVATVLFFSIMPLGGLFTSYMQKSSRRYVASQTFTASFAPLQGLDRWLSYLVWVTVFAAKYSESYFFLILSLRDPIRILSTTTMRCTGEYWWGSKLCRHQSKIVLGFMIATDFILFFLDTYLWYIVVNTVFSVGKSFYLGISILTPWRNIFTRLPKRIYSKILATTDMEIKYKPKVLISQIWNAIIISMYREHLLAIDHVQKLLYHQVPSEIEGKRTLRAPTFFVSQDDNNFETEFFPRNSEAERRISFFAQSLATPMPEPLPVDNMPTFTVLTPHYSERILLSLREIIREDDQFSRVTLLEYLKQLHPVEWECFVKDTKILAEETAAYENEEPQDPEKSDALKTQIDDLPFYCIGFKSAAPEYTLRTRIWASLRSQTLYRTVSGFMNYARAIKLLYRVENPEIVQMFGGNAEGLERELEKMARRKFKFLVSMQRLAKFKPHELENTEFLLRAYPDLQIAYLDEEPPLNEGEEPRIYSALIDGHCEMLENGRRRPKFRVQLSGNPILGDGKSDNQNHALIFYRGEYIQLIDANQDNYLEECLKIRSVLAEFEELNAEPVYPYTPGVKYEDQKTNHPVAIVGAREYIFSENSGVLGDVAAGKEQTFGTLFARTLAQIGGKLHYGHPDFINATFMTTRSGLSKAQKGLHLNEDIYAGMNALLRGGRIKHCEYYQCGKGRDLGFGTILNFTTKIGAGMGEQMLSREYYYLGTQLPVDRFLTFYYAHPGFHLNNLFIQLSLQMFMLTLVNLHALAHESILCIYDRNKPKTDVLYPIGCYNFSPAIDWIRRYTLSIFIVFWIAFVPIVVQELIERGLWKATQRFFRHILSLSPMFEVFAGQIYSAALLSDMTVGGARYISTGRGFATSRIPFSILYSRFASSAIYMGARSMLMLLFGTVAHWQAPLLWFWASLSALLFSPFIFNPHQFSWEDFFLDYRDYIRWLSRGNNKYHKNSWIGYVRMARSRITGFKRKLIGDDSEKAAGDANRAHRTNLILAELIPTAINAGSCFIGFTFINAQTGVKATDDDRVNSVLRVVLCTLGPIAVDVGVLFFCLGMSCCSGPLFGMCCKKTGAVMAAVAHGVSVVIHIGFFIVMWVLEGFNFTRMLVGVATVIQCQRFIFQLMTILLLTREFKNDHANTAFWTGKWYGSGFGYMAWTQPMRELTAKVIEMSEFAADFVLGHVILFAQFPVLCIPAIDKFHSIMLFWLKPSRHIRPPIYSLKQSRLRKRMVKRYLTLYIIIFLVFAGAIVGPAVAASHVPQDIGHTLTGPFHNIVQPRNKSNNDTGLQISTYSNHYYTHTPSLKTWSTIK

Question: With CCC(C)CC(C)CCCCCCCCC(=O)NC1C[C@@H](O)[C@@H](O)NC(=O)C2CN(C[C@@H]2O)C(=O)[C@H]([C@H](O)CCNC(=O)CCCCN)NC(=O)[C@H]([C@H](O)[C@@H](O)c2ccc(O)cc2)NC(=O)C2C[C@@H](O)CN2C(=O)[C@H]([C@@H](C)O)NC1=O (stereo partly specified) as the molecule, how does the IC50 (1,3-beta-glucan synthase) read?
Answer: 20 nM

Question: What about the MFC (Candida albicans [1]) of the same molecule?
Answer: 0.5 µg/mL (≈ 0.435 µM)

Question: And the ED99.9 (Mus musculus [2])?
Answer: 1.5 mg/kg

Question: And the Sterilized (Mus musculus [3])?
Answer: 0%

Question: What about the Dose [4] of the same molecule?
Answer: 250 mg/kg

Question: What does the source list for CCC(C)CC(C)CCCCCCCCC(=O)NC1C[C@@H](O)[C@@H](O)NC(=O)C2CN(C[C@@H]2O)C(=O)[C@H]([C@H](O)CCNC(C)=O)NC(=O)[C@H]([C@H](O)[C@@H](O)c2ccc(O)cc2)NC(=O)C2C[C@@H](O)CN2C(=O)[C@H]([C@@H](C)O)NC1=O (stereo partly specified)?
Answer: IC50 (1,3-beta-glucan synthase): 300 nM; MFC (Candida albicans [1]): 2 µg/mL (≈ 1.83 µM); ED99.9 (Mus musculus [2]): 12 mg/kg; Sterilized (Mus musculus [3]): 0%; Dose [4]: > 250 mg/kg

Question: Which results are given for CCC(C)CC(C)CCCCCCCCC(=O)NC1C[C@@H](O)[C@@H](OCCN)NC(=O)C2CN(C[C@@H]2O)C(=O)[C@H]([C@H](O)CCNC(=O)[C@@H](N)CCN)NC(=O)[C@H]([C@H](O)[C@@H](O)c2ccc(O)cc2)NC(=O)C2C[C@@H](O)CN2C(=O)[C@H]([C@@H](C)O)NC1=O (stereo partly specified)?
Answer: IC50 (1,3-beta-glucan synthase): 6 nM; MFC (Candida albicans [1]): 0.5 µg/mL (≈ 0.419 µM); ED99.9 (Mus musculus [2]): 0.09 mg/kg; Sterilized (Mus musculus [3]): 0%; Dose [4]: 100 mg/kg

Question: For CCC(C)CC(C)CCCCCCCCC(=O)NC1C[C@@H](O)[C@@H](O)NC(=O)C2CN(C[C@@H]2O)C(=O)[C@H]([C@H](O)CCNC(=O)CN)NC(=O)[C@H]([C@H](O)[C@@H](O)c2ccc(O)cc2)NC(=O)C2C[C@@H](O)CN2C(=O)[C@H]([C@@H](C)O)NC1=O (stereo partly specified), which IC50 (1,3-beta-glucan synthase) is on record?
Answer: 15 nM

Question: What about the MFC (Candida albicans [1]) of the same molecule?
Answer: 0.5 µg/mL (≈ 0.451 µM)

Question: What about the ED99.9 (Mus musculus [2]) of the same molecule?
Answer: 0.375 mg/kg

Question: What about the Sterilized (Mus musculus [3]) of the same molecule?
Answer: 20%

Question: And the Dose [4]?
Answer: 250 mg/kg

Question: Which IC50 (1,3-beta-glucan synthase) does the source give for CCC(C)CC(C)CCCCCCCCC(=O)NC1C[C@@H](O)[C@@H](OCCN)NC(=O)C2CN(C[C@@H]2O)C(=O)[C@H]([C@H](O)CCN)NC(=O)[C@H]([C@H](O)[C@@H](O)c2ccc(O)cc2)NC(=O)C2C[C@@H](O)CN2C(=O)[C@H]([C@@H](C)O)NC1=O (stereo partly specified) here?
Answer: 1 nM

Question: What about the MFC (Candida albicans [1]) of the same molecule?
Answer: 0.125 µg/mL (≈ 0.114 µM)

Question: What about the MFC90 (Candida albicans [5]) of the same molecule?
Answer: 0.5 µg/mL (≈ 0.457 µM)

Question: And the MFC90 (Pichia kudriavzevii [6])?
Answer: 1 µg/mL (≈ 0.914 µM)

Question: And the MFC90 (Kluyveromyces marxianus [7])?
Answer: 0.5 µg/mL (≈ 0.457 µM)

Question: What about the MFC90 (Nakaseomyces glabratus [8]) of the same molecule?
Answer: 1 µg/mL (≈ 0.914 µM)

Question: And the MFC90 (Candida parapsilosis [9])?
Answer: 0.5 µg/mL (≈ 0.457 µM)

Question: And the MFC90 [10]?
Answer: 4 µg/mL (≈ 3.66 µM)

Question: What about the MFC90 (Candida tropicalis [11]) of the same molecule?
Answer: 0.5 µg/mL (≈ 0.457 µM)

Question: What about the MFC90 (Clavispora lusitaniae [12]) of the same molecule?
Answer: 0.5 µg/mL (≈ 0.457 µM)

Question: And the MFC90 (Cryptococcus neoformans [13])?
Answer: 32 µg/mL (≈ 29.2 µM)

Question: And the ED99.9 (Mus musculus [2])?
Answer: 0.09 mg/kg

Question: What about the ED50 (Mus musculus [14]) of the same molecule?
Answer: 0.03 mg/kg

Question: And the Sterilized (Mus musculus [3])?
Answer: 80%

Question: What about the Dose [4] of the same molecule?
Answer: 30 mg/kg

Question: What does the source list for C[C@@H]1[C@H](O)[C@@H](C)/C=C/C=C/C=C/C=C/C=C/C=C/C=C/[C@H](O[C@@H]2O[C@H](C)[C@@H](O)[C@H](N)[C@@H]2O)C[C@@H]2O[C@](O)(C[C@@H](O)C[C@@H](O)[C@H](O)CC[C@@H](O)C[C@@H](O)CC(=O)O[C@H]1C)C[C@H](O)[C@H]2C(=O)O [AMPHOTERICIN B]?
Answer: MFC90 (Candida albicans [15]): 0.25 µg/mL (≈ 0.271 µM); MFC90 (Pichia kudriavzevii [16]): 0.5 µg/mL (≈ 0.541 µM); MFC90 (Candida parapsilosis [17]): 1 µg/mL (≈ 1.08 µM); MFC90 [18]: 0.5 µg/mL (≈ 0.541 µM); MFC90 (Candida tropicalis [19]): 0.5 µg/mL (≈ 0.541 µM); MFC90 (Kluyveromyces marxianus [20]): 0.5 µg/mL (≈ 0.541 µM); MFC90 (Clavispora lusitaniae [21]): 2 µg/mL (≈ 2.16 µM); MFC90 (Nakaseomyces glabratus [22]): 0.5 µg/mL (≈ 0.541 µM); MFC90 (Cryptococcus neoformans [23]): 0.5 µg/mL (≈ 0.541 µM)

Question: Which IC50 (1,3-beta-glucan synthase) does the source give for CCC(C)CC(C)CCCCCCCCC(=O)NC1C[C@@H](O)[C@@H](O)NC(=O)C2CN(C[C@@H]2O)C(=O)[C@H]([C@H](O)CCNC(=O)[C@@H](N)CN)NC(=O)[C@H]([C@H](O)[C@@H](O)c2ccc(O)cc2)NC(=O)C2C[C@@H](O)CN2C(=O)[C@H]([C@@H](C)O)NC1=O (stereo partly specified) here?
Answer: 30 nM

Question: And the MFC (Candida albicans [1])?
Answer: 1 µg/mL (≈ 0.879 µM)

Question: And the ED99.9 (Mus musculus [2])?
Answer: 1.5 mg/kg

Question: And the ED50 (Mus musculus [14])?
Answer: > 1.25 mg/kg

Question: What about the Sterilized (Mus musculus [3]) of the same molecule?
Answer: 100%

Question: What about the Dose [4] of the same molecule?
Answer: > 250 mg/kg

Question: For CCC(C)CC(C)CCCCCCCCC(=O)NC1C[C@@H](O)[C@@H](O)NC(=O)C2CN(C[C@@H]2O)C(=O)[C@H]([C@H](O)CCN)NC(=O)[C@H]([C@H](O)[C@@H](O)c2ccc(O)cc2)NC(=O)C2C[C@@H](O)CN2C(=O)[C@H]([C@@H](C)O)NC1=O (stereo partly drawn) (X1-[ξOrn(4R-OH,5R-OH)]T[ξPro(4R-OH)][hTyr(3S-OH,4S-OH)][Orn(3R-OH)][X2]; lactam 1-C), which IC50 (1,3-beta-glucan synthase) is on record?
Answer: 10 nM

Question: What about the MFC (Candida albicans [1]) of the same molecule?
Answer: < 0.06 µg/mL

Question: And the ED99.9 (Mus musculus [2])?
Answer: 0.375 mg/kg

Question: What about the ED50 (Mus musculus [14]) of the same molecule?
Answer: > 20 mg/kg

Question: And the Sterilized (Mus musculus [3])?
Answer: 70%

Question: What about the Dose [4] of the same molecule?
Answer: 100 mg/kg

Question: For CCC(C)CC(C)CCCCCCCCC(=O)NC1C[C@@H](O)[C@@H](O)NC(=O)C2CN(C[C@@H]2O)C(=O)[C@H]([C@H](O)CCNC(=O)[C@@H](N)CCCN)NC(=O)[C@H]([C@H](O)[C@@H](O)c2ccc(O)cc2)NC(=O)C2C[C@@H](O)CN2C(=O)[C@H]([C@@H](C)O)NC1=O (stereo partly specified), which IC50 (1,3-beta-glucan synthase) is on record?
Answer: 3 nM

Question: And the MFC (Candida albicans [1])?
Answer: < 0.06 µg/mL

Question: And the ED99.9 (Mus musculus [2])?
Answer: 0.375 mg/kg

Question: And the Sterilized (Mus musculus [3])?
Answer: 20%

Question: What about the Dose [4] of the same molecule?
Answer: > 200 mg/kg

Reference: ChEMBL document CHEMBL1130502, “Lipopeptide antifungal agents: Amine conjugates of the semi-synthetic pneumocandins L-731,373 and L-733,560” (Bioorg Med Chem Lett, 1997)
